US20250091995A1, “STABLE CRYSTAL OF 4-OXOQUINOLINE COMPOUND” (Japan Tobacco Inc., priority 2004, published 2025)
Values after ≈ are worked out from the molar mass of the structure shown.

Key:
Assay type in all cases: physicochemical
[1] = Thermal analysis (DSC): enthalpy and extrapolated onset temperature at endothermic peak; conditions: for Endothermic peak Enthalpy / Endothermic peak Extrapolated onset temperature: crystal forms I and II 10° C./min, aluminum open pan, crystal form III 5° C./min, aluminum closed pan
Excerpt: This test aims at the measurement of the enthalpy and extrapolated onset temperature at an endothermic peak on the Differential Scanning Calorimetry (DSC) measurement curve. These values are among the indices of the stability of the above-mentioned crystal form I, crystal form II and crystal form III, and can be used as an index to specify the crystal form. Crystal form I and crystal form II were subjected to measurement using a Differential Scanning Calorimetry (DSC) measurement apparatus (DSC8240, manufactured by Rigaku Corporation), under atmosphere, measurement sample 5±1 mg, temperature rise rate: 10° C./min, aluminum open pan, and alumina oxide as a reference. The enthalpy and extrapolated onset temperature at an endothermic peak on the obtained DSC curve were determined. Crystal form III was subjected to measurement using a DSC measurement apparatus (DSC8240, manufactured by Rigaku Corporation), under atmosphere, measurement sample 5.0+0.5 mg, temperature rise rate: 5° C./min, aluminum closed pan, and alumina oxide as a reference. The enthalpy and extrapolated onset temperature at an endothermic peak on the obtained DSC curve were determined.

[2] = Stability test under preservation conditions (appearance, HPLC purity, XRD, DSC); conditions: for Stability under various preservation conditions (overall evaluation): all preservation conditions; for Purity: HPLC
Protocol: A sample was fixed to an aluminum cell, and the measurement was performed using an X-ray powder diffractometer (RINT 2000/PC Ultima^+, manufactured by Rigaku Corporation, X-ray source: Cu-Kα1 ray, tube voltage: 40 kV, tube electric current: […], scan speed: 5° per min, step width: 0.02°, diffraction angle: 5-40°), based on which the diffraction patterns were obtained. Crystal form I and crystal form II were subjected to measurement using a Differential Scanning Calorimetry (DSC) measurement apparatus (DSC8240, manufactured by Rigaku Corporation), under atmosphere, measurement sample 5±1 mg, temperature rise rate: 10° C./min, aluminum open pan, and alumina oxide as a reference. The enthalpy and extrapolated onset temperature at an endothermic peak on the obtained DSC curve were determined. Crystal form III was subjected to measurement using a DSC measurement apparatus (DSC8240, manufactured by Rigaku Corporation), under atmosphere, measurement sample 5.0+0.5 mg, temperature rise rate: 5° C./min, aluminum closed pan, and alumina oxide as a reference. The enthalpy and extrapolated onset temperature at an endothermic peak on the obtained DSC curve were determined. Each sample (crystal form I and crystal form II, ca. 10 mg) was dissolved in acetonitrile to make an amount of 10 mL and used as a sample solution. This solution ([…]) was applied to high performance liquid chromatography (HPLC) under the following conditions. The peak area of each sample solution was measured by automatic integration, and the purity was determined by the following formula. The purity is shown in the Tables 5 and 6 below. • Detector: UV absorptiometer (wavelength: 259 nm) • Column: CAPCELL PAK MG (inner diameter […], length 15 cm, particle size 5 μm, manufactured by Shiseido Co., Ltd. • Column temperature: constant temperature around 40° C. • Mobile phase A: trifluoroacetic acid solution (1:1000) • Mobile phase B: solution of trifluoroacetic acid in acetonitrile (1:1000) • Gradient program: As shown in the following Table 2, the mixing ratio of mobile phase A and mobile phase B is changed to control concentration gradient. A sample (crystal form III, ca. 50 mg) was dissolved in a mixture (4:1) of mobile phase B and mobile phase A to make an amount of 50 mL, which was used as a sample solution. This solution (1 mL) was precisely measured and a mixture (4:1) of mobile phase B and mobile phase A was added to precisely make an amount of 100 mL, which was used as a standard solution. The sample solution and standard solution ([…]) was applied to high performance liquid chromatography (HPLC) under the following conditions. The peak area of each solution was measured by automatic integration, and the purity was determined by the following formula. The purity is shown in the Table 7 below. • Detector: UV absorptiometer (wavelength: 259 nm) • Column: Waters XTerra MC C18 ([…], manufactured by Waters) • Column temperature: constant temperature around 40° C. • Mobile phase A: phosphoric acid is added to dipotassium hydrogenphosphate solution (1>1149) to adjust pH to 7.0 • Mobile phase B: acetonitrile • Gradient program: As shown in the following Table 3, the mixing ratio of mobile phase A and mobile phase B is changed to control concentration gradient. A stability test of each sample was performed under the following preservation conditions. The results of crystal form I are shown in Table 5, the results of crystal form II are shown in Table 6, and the results of crystal form III are shown in Table 7.

[3] = Solubility test in various test solutions and pHs
Protocol: This test aims at measurement of solubility of the crystal in various test solutions and under various pHs. The solubility is one of the indices of the stability of the above-mentioned crystal form I, crystal form II and crystal form III and can be used also as a reference indices of absorbability of crystal form by living organisms. Each sample (crystal form I type I, crystal form II and crystal form III, ca. 10 mg) was placed in a 10 mL centrifuge tube together with the following test solution (5 mL) and shaken with a shaker (SR-1M; manufactured by […] Co., Ltd.) for 14 hours. After shaking, the mixture was centrifuged (3000 rpm, 20 min) and the supernatant was filtered through 0.2 μm pore size-13 mm diameter polytetrafluoroethylene disk filter (Millex-LG; manufactured by Millipore Corporation). The measurement was performed by high performance liquid chromatography (HPLC).

[4] = condition 2: 80° C., closed container, preserved for 3 days
[5] = condition 3: 80° C., open container, preserved for 3 days
[6] = condition 4: 60° C., closed container, preserved for 3 weeks
[7] = condition 5: 60° C., open container, preserved for 3 weeks
[8] = condition 6: 60° C./75% R.H., open container, preserved for 3 weeks
[9] = Japanese Pharmacopoeia 1st fluid, pH 1.2, shaken 14 hours
[10] = Japanese Pharmacopoeia 2nd fluid, pH 6.8, shaken 14 hours
[11] = McIlvaine buffer pH 2.2, shaken 14 hours
[12] = McIlvaine buffer pH 4, shaken 14 hours
[13] = McIlvaine buffer pH 5, shaken 14 hours
[14] = McIlvaine buffer pH 6.8, shaken 14 hours
[15] = McIlvaine buffer pH 8, shaken 14 hours
[16] = Purified water, shaken 14 hours
[17] = condition 6: 60° C./75% R.H., closed container, preserved for 3 weeks

## COc1cc2c(cc1Cc1cccc(Cl)c1F)c(=O)c(C(=O)O)cn2[C@H](CO)C(C)C [Crystal form I, 6-(3-chloro-2-fluorobenzyl)-1-[(S)-1-hydroxymethyl-2-methylpropyl]-7-methoxy-4-oxo-1,4-dihydroquinoline-3-carboxylic acid]
[1]
  Endothermic peak Enthalpy: 51.080 J/g
  Endothermic peak Extrapolated onset temperature: 150.3 °C
[2]
  Stability under various preservation conditions (overall evaluation): unstable
[2]; condition 1: Initial
  Purity: 99.1%
[2]; [4]
  Appearance: No change
  XRD (X-ray powder diffraction pattern vs initial): No change
  Purity: 99.1%
[2]; [5]
  Appearance: No change
  XRD (X-ray powder diffraction pattern vs initial): a part of the sample showed crystal transition to crystal form II
  Purity: 99.1%
[2]; [6]
  Appearance: No change
  XRD (X-ray powder diffraction pattern vs initial): No change
  Purity: 99.1%
[2]; [7]
  Appearance: No change
  XRD (X-ray powder diffraction pattern vs initial): a part of the sample showed crystal transition to crystal form II
  Purity: 99.1%
[2]; [8]
  Appearance: No change
  XRD (X-ray powder diffraction pattern vs initial): No change
  Purity: 99.1%

## COc1cc2c(cc1Cc1cccc(Cl)c1F)c(=O)c(C(=O)O)cn2[C@H](CO)C(C)C [Crystal form III, 6-(3-chloro-2-fluorobenzyl)-1-[(S)-1-hydroxymethyl-2-methylpropyl]-7-methoxy-4-oxo-1,4-dihydroquinoline-3-carboxylic acid]
[3]; [9]
  Solubility: <0.1 µg/mL
[3]; [10]
  Solubility: 2.4 µg/mL (≈ 5.36 µM)
[3]; [11]
  Solubility: <0.1 µg/mL
[3]; [12]
  Solubility: <0.1 µg/mL
[3]; [13]
  Solubility: <0.1 µg/mL
[3]; McIlvaine buffer pH 6, shaken 14 hours
  Solubility: 0.7 µg/mL (≈ 1.56 µM)
[3]; [14]
  Solubility: 0.7 µg/mL (≈ 1.56 µM)
[3]; [15]
  Solubility: 23 µg/mL (≈ 51.4 µM)
[3]; [16]
  Solubility: <0.1 µg/mL
[1]
  Stability among three crystal forms judged from enthalpy and extrapolated onset temperature: most stable form
  Endothermic peak Enthalpy: 81.404 J/g
  Endothermic peak Extrapolated onset temperature: 162.1 °C
[2]
  Stability under various preservation conditions (overall evaluation): extremely stable
[2]; condition 1: Initial
  Purity: 98.71%
[2]; [4]
  Appearance: No change
  XRD (X-ray powder diffraction pattern vs initial): No change
  Purity: 98.68%
[2]; [5]
  Appearance: No change
  XRD (X-ray powder diffraction pattern vs initial): No change
  Purity: 98.69%
[2]; [6]
  Appearance: No change
  XRD (X-ray powder diffraction pattern vs initial): No change
  Purity: 98.67%
[2]; [7]
  Appearance: No change
  XRD (X-ray powder diffraction pattern vs initial): No change
  Purity: 98.66%
[2]; [17]
  Appearance: No change
  XRD (X-ray powder diffraction pattern vs initial): No change
  Purity: 98.65%

## COc1cc2c(cc1Cc1cccc(Cl)c1F)c(=O)c(C(=O)O)cn2[C@H](CO)C(C)C [Crystal form II, 6-(3-chloro-2-fluorobenzyl)-1-[(S)-1-hydroxymethyl-2-methylpropyl]-7-methoxy-4-oxo-1,4-dihydroquinoline-3-carboxylic acid]
[3]; [9]
  Solubility: 0.9 µg/mL (≈ 2.01 µM)
[3]; [10]
  Solubility: 5.8 µg/mL (≈ 12.9 µM)
[3]; [11]
  Solubility: 1.9 µg/mL (≈ 4.24 µM)
[3]; [12]
  Solubility: 0.8 µg/mL (≈ 1.79 µM)
[3]; [13]
  Solubility: 0.4 µg/mL (≈ 0.893 µM)
[3]; [14]
  Solubility: 6.3 µg/mL (≈ 14.1 µM)
[3]; [15]
  Solubility: 84 µg/mL (≈ 188 µM)
[3]; McIlvaine buffer, pH 6, aqueous buffer, thermodynamic from solid, McIlvaine buffer pH 6, shaken 14 hours
  solubility at 14 h: 1 µg/mL (≈ 2.23 µM)
[3]; [16]
  Solubility: 0.5 µg/mL (≈ 1.12 µM)
[3]; all test solutions of Table 4
  Solubility compared between crystal forms: higher solubility than crystal form III
[1]
  Endothermic peak Enthalpy: 53.542 J/g
  Endothermic peak Extrapolated onset temperature: 151.2 °C
[2]
  Stability under various preservation conditions (overall evaluation): extremely stable
[2]; condition 1: Initial
  Purity: 98.9%
[2]; [4]
  Appearance: No change
  XRD (X-ray powder diffraction pattern vs initial): No change
  Purity: 98.9%
[2]; [5]
  Appearance: No change
  XRD (X-ray powder diffraction pattern vs initial): No change
  Purity: 98.8%
[2]; [6]
  Appearance: No change
  XRD (X-ray powder diffraction pattern vs initial): No change
  Purity: 98.9%
[2]; [7]
  Appearance: No change
  XRD (X-ray powder diffraction pattern vs initial): No change
  Purity: 98.8%
[2]; [8]
  Appearance: No change
  XRD (X-ray powder diffraction pattern vs initial): No change
  Purity: 98.9%
